These results are taken from patent US10407406B2, “2-halo-5-alkynyl-pyridyl nicotinic ligands” (Georgetown University, priority 2013, dated 2019).

One test has as its target T1, α3β4 nAChR (Rattus norvegicus, UniProt P04757+P12392).
T1 construct: expressed in transfected cells; host or cells: HEK 293
Description: [3H]-epibatidine competition binding, α3β4 nAChR in stably transfected HEK 293 cells. The settings on record: competition against [3H]-epibatidine. An excerpt:
(§1) Pharmacological Properties. We measured the in vitro binding affinities of the ligands for defined receptor subtypes (α2β2, α2β4, α3β2, α3β4, α4β2, α4β4, α6β2, α6β4, and α7) expressed in stably transfected cell lines. […] Rat forebrain homogenates were included to allow comparison between the heterologous and native α4β2 and α7 nAChRs.
(§2) To determine selectivities of these compounds in binding assays among the three predominant nAChR subtypes, α3β4, α4β2, and α7, the ratios of Ki values (α3β4/α4β2 and α7/α4β2) were determined.
(§3) The cell lines expressing defined rat nAChR subtypes were established previously by stably transfecting HEK 293 cells with rat nAChR subunit genes. The cell line expressing human α4β2 nAChRs, YXα4β2H1, was established recently. These cell lines were maintained in minimum essential medium (MEM) supplemented with 10% fetal bovine serum, 100 units/mL penicillin G, […] streptomycin and selective antibiotics at 37° C. with 5% CO2 in a humidified incubator. Fetal bovine scrum was provided by Gemini Bio-Products (Woodland, Calif.). Tissue culture medium and antibiotics were obtained from Invitrogen Corporation (Carlsbad, Calif.), unless otherwise stated.
(§4) Briefly, cultured cells at >80% confluence were removed from their flasks (80 cm^2) with a disposable cell scraper and placed in 10 mL of 50 mM Tris⋅HCl buffer (pH 7.4, 4° C.). The cell suspension was centrifuged at 10,000×g for 5 min and the pellet was collected. The cell pellet was then homogenized in 10 mL buffer with a polytron homogenizer and centrifuged at 36,000 g for 10 min at 4° C. The membrane pellet was resuspended in fresh buffer, and aliquots of the membrane preparation were used for binding assays. […] Bound and free ligands were separated by vacuum filtration through Whatman GF/C filters treated with 0.5% polyethylenimine. The filter-retained radioactivity was measured by liquid scintillation counting. Specific binding was defined as the difference between total binding and nonspecific binding. Data from competition binding assays were analyzed using Prism 5 (GraphPad Software, San Diego, Calif.).

The target of a further test is T2, α4β2 nAChR (Rattus norvegicus, UniProt P09483+P12390).
T2 construct: expressed in transfected cells; host or cells: HEK 293
Description: [3H]-epibatidine competition binding, α4β2 nAChR in stably transfected HEK 293 cells. Particulars: competition against [3H]-epibatidine.
Source text: as §1, §2, §3, §4

For a further test, the target named is T3, rat α3β4 nAChRs (Rattus norvegicus, UniProt P04757+P12392).
T3 construct: expressed in transfected cells; host or cells: HEK 293
Description: 86Rb+ efflux assay in cells expressing rat α3β4 nAChRs. The class given is cell-based. Particulars: for α3β4 Emax: efficacy compared to 100 μM (−)-nicotine; for Emax: read-out: α3β4 Emax. The protocol: (§5) The functional properties of the ligands were determined by ^86Rb^| efflux assays in cells expressing α3β4 and α4β2 nAChR subtypes. The functional activity of each ligand was measured for its agonism, antagonism and desensitization ability. Agonist activity for each of the ligands was tested at eight different concentrations. […] The full concentration-effect curves generated potency (EC50) and efficacy (Emax) of each ligand. […] Each ligand was tested for antagonist activity at eight concentrations. The potency (IC50(0′)) of each ligand as an antagonist was derived from the full concentration-effect curves. […] Although ^86Rb^+ efflux assays are mainly used to determine functional properties, whole cell current measurements were also used to verify the key experiments.
(§6) In Vitro Effects on nAChR Function. […] Their agonist activities were assessed by measuring stimulated ^86Rb^+ efflux from stably transfected cells, either expressing human α4β2 nAChRs or rat α3β4 receptors.
as §3
(§7) Functional properties of compounds at nAChRs expressed in the transfected cells were measured using ^86Rb^+ efflux assays as described previously. In brief, cells expressing human α4β2 or rat α3β4 nAChRs were plated into 24-well plates coated with poly-D-lysine. The plated cells were grown at 37° C. for 18 to 24 hour to reach 85-95% confluence. The cells were then incubated in growth medium (0.5 mL/well) containing ^86Rb^+ (2 μCi/mL) for 4 hour at 37° C. The loading mixture was then aspirated, and the cells were washed four times with 1 mL buffer (15 mM HEPES, 140 mM NaCl, 2 mM KCl, 1 mM MgSO4, 1.8 mM CaCl2, 11 mM Glucose, pH 7.4). One mL of buffer with or without compounds to be tested was then added to each well. After incubation for 2 min, the assay buffer was collected for measurements of ^86R^+ released from the cells. Cells were then lysed by adding 1 mL of 100 mM NaOH to each well, and the lysate was collected for determination of the amount of ^86Rb^+ that was in the cells at the end of the efflux assay. Radioactivity of assay samples and lysates was measured by liquid scintillation counting. Total loading (cpm) was calculated as the sum of the assay sample and the lysate of each well. The amount of ^86Rb^+ efflux was expressed as a percentage of ^86Rb^| loaded. […] For obtaining EC50 and Emax values, stimulation curves were constructed in which 8 different concentrations of a ligand were included in the assay. […] EC50, Emax and IC50(10′) values were determined by nonlinear least-squares regression analyses (GraphPad, San Diego, Calif.).

For another test, the target named is T4, human α4β2 nAChRs (Homo sapiens, UniProt P17787+P43681).
T4 construct: expressed in transfected cells
Description: 86Rb+ efflux assay in cells expressing human α4β2 nAChRs. The class given is cell-based. Particulars: for IC50: desensitization, 10 min pre-treatment before 100 μM (−)-nicotine; for α4β2 Emax: efficacy compared to 100 μM (−)-nicotine. The protocol:
as §5, §6, §3, §7

In the next test the target is T5, α7 nAChR (Rattus norvegicus, UniProt Q05941).
T5 construct: expressed in transfected cells; host or cells: HEK 293
As to the kind of experiment: biochemical. The test is classed as binding. Particulars: competition against [3H]-epibatidine.
Source text: as §1, §2
The cell lines expressing defined rat nAChR subtypes were established previously by stably transfecting HEK 293 cells with rat nAChR subunit genes. The cell line expressing human α4β2 nAChRs, YXα4β2H1, was established recently. These cell lines were maintained in minimum essential medium (MEM) supplemented with 10% fetal bovine serum, 100 units/mL penicillin G, […] and selective antibiotics at 37° C. with 5% CO2 in a humidified incubator. […]
Briefly, cultured cells at >80% confluence were removed from their flasks (80 cm^2) with a disposable cell scraper and placed in 10 mL of 50 mM Tris⋅HCl buffer (pH 7.4, 4° C.). […] The filter-retained radioactivity was measured by liquid scintillation counting. […] Data from competition binding assays were analyzed using Prism 5 (GraphPad Software, San Diego, Calif.).

Where [1] appears, read: agonist activity, stimulated 86Rb+ efflux, read-out: α3β4 EC50.

What is called Ki is a dissociation constant, usually derived from enzyme kinetics or from competition with a known ligand. In general, EC50 refers to the concentration at which the effect is half-maximal. As a reminder, the Emax is the maximal effect, on the per cent scale that the assay sets. A word on the IC50: it is the concentration that gives 50% inhibition.

Molecules are shown by their SMILES. Like-named read-outs stand apart in the source and are kept apart here. Some results are limits rather than exact numbers.

As for `c1cnc2cc3c(cc2n1)[C@@H]1CNC[C@H]3C1` [Varenicline], the Ki was determined as 27 nM at α3β4 nAChR and 0.14 nM at α4β2 nAChR. Further, on rat α3β4 nAChRs (setting [1]), the EC50 turned out to be 3200 nM. For the same compound, the “α3β4 Emax” value at rat α3β4 nAChRs came to 82%.
On to `CN1CCCC1c1cccnc1` (single isomer, unassigned; (-)) [(−)-Nicotine], for which the “agonist activity at the α4β2 nAChRs (in words)” value at human α4β2 nAChRs is reported as “full agonist activities”. Moreover, the Emax at human α4β2 nAChRs (read-out: α4β2 Emax) turned out to be 100%.
For the compound `CCCCC#Cc1cnc(C)c(OC[C@@H]2CCN2)c1` [YL-1-127, (S)-3-(azetidin-2-ylmethoxy)-5-(hex-1-ynyl)-2-methylpyridine], the Ki at α3β4 nAChR is 575 nM. At α4β2 nAChR, this compound had a Ki of 14 nM. Moreover, at rat α3β4 nAChRs, the EC50 is 11000 nM and the Emax turned out to be 10%. Moreover, at rat α3β4 nAChRs (stimulated 86Rb+ efflux), the “agonist activity at the α3β4 nAChRs (in words)” value is recorded as “did not show detectable agonist activity”. In addition, the IC50 at human α4β2 nAChRs is 260 nM.
Consider `OCCCCC#Cc1cncc(OC[C@@H]2CCN2)c1` [Sazetidine-A], for which the Ki on α3β4 nAChR was 6.5 nM; at α4β2 nAChR, 0.034 nM; at α7 nAChR it was 670 nM. Further, the EC50 turned out to be 730 nM on rat α3β4 nAChRs (setting [1]) and 24 nM on human α4β2 nAChRs (agonist activity, stimulated 86Rb+ efflux, read-out: α4β2 EC50). The IC50 was 1300 nM on rat α3β4 nAChRs (desensitization, 10 min pre-treatment before 100 μM (−)-nicotine) and 11 nM at human α4β2 nAChRs. For the same compound, the “α3β4 Emax” value at rat α3β4 nAChRs turned out to be 96%. Further, on human α4β2 nAChRs, the “α4β2 Emax” value worked out at 40%.
`FCCCCC#Cc1cnc(F)c(OC[C@@H]2CCN2)c1` [YL-2-203, (S)-3-(azetidin-2-ylmethoxy)-2-fluoro-5-(6-fluorohex-1-ynyl)pyridine di-trifluoroacetic acid]: the Ki on α3β4 nAChR was determined as 93 nM; on α4β2 nAChR it was 0.2 nM; at α7 nAChR it was 11000 nM. Further, the EC50 on rat α3β4 nAChRs is 6300 nM; at human α4β2 nAChRs it was 35 nM. Moreover, the maximum response (Emax) at rat α3β4 nAChRs was 26%; at human α4β2 nAChRs (read-out: α4β2 Emax, efficacy compared to 100 μM (−)-nicotine), less than 33%. Moreover, at rat α3β4 nAChRs (stimulated 86Rb+ efflux), the “agonist activity at the α3β4 nAChRs (in words)” value is recorded as “did not show detectable agonist activity”. Besides, the “α4β2 Emax” value on human α4β2 nAChRs (di-trifluoroacetic acid) turned out to be 33%.
